From patent US5519034A, “Tetraisoquinoline compounds which have useful pharmaceutical utility” (The Boots Company PLC, priority 1991, dated 1996)
pKi: −log10 of the molar value. Where two headings read alike, the source gives them in different places.

Assays:
[1] = molecular target: T1, D1 dopamine receptors (Rattus norvegicus, UniProt P18901); assay: D1 dopamine receptor binding: inhibition of tritiated SCH 23390 binding, rat striatal samples; parameters: species or system rat (male Charles River CD rats); conditions: rat striatum, tritiated SCH 23390, pH 7.4, 37° C., 30 minutes
T1 construct: Striatal samples from the brains of male Charles River CD rats; from tissue; host or cells: striatum of male Charles River CD rats (washed membrane pellet)
T1 sequence (P18901 whole entry): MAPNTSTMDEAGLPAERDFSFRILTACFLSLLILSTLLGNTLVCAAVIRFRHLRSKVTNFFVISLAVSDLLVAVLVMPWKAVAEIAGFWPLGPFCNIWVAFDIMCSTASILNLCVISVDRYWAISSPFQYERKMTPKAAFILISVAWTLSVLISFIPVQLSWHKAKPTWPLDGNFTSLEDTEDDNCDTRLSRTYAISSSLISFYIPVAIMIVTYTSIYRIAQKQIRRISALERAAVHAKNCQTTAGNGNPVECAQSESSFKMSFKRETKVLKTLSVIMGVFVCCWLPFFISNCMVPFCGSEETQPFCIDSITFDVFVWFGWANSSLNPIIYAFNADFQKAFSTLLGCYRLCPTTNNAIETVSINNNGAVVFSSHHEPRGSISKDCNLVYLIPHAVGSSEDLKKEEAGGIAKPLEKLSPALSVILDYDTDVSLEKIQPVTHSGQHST
Description: (§1) Striatal samples from the brains of male Charles River CD rats weighing between 140-250 g were homogenised in ice-cold 50 mM Tris-HCl buffer (pH 7.4 when measured at 25° C. for D1 binding assays and pH 7.7 when measured at 25° C. for D2 binding assays) and centrifuged for 10 minutes (at 21,000 g when used for D1binding assay and 40,000 g when used for D2binding assays). The pellet was resuspended in the same buffer, again centrifuged and the final pellet stored at -80° C. Before each test the pellet was resuspended in 50 mM Tris-HCl buffer containing 120 mM NaCl, 5 mM KCl, 2 mM CaCl2 and 1 mM MgCl2 at pH 7.4 for the D1 binding assays and at pH 7.7 with the addition of 6 mM ascorbic acid for the D2 binding assays. Aliquots of this suspension were then added to tubes containing the ligand and either the compound under test or buffer. For the D1 binding assays the ligand was tritiated SCH 23390 and the mixture was incubated at 37° C. for 30 minutes before the incubation was terminated by rapid filtration. For the D2 binding assays the ligand was tritiated (S)-sulpiride and the mixture was incubated at 4° C. for 40 minutes before the incubation was terminated by rapid filtration. Non-specific binding was determined experimentally by the addition of saturating concentrations of chloropromazine or spiroperidol for D1 and D2 receptors respectively.
(§2) The filters were washed with ice-cold Tris-HCl buffer and dried. The filters were punched out on to vials containing scintillation fluid and were left for about 20 hours before being counted by scintillation spectrophotometry. Displacement curves were produced over a range of concentrations of the compound under test and the concentration which gave a 50% inhibition of specific binding (IC50) obtained from the curve. The inhibition coefficient Ki was then calculated using the formula [formula] in which [ligand] is the concentration of the tritiated ligand used and KD is the equilibrium dissociation constant for the ligand.
(§3) In some cases Ki values for D2 binding were estimated from single concentration data by the application of the Langmuir adsorption isotherm equation. These cases are indicated by an "E" in the last two columns of Table I. In other cases it was not possible to determine or estimate the Ki and the Ki value is given as greater than (>) that which would result from the application of the above formula to the highest concentration which displaced ≤50% of the ligand.

[2] = molecular target: T2, D2 dopamine receptors (Rattus norvegicus, UniProt P61169); assay: D2 dopamine receptor binding: inhibition of tritiated (S)-sulpiride binding, rat striatal samples; parameters: species or system rat (male Charles River CD rats); conditions: for pKi: rat striatum, tritiated (S)-sulpiride; for Ki for D2 / Ki for D1: ratio to two significant figures
T2 construct: Striatal samples from the brains of male Charles River CD rats; from tissue; host or cells: striatum of male Charles River CD rats (washed membrane pellet)
T2 sequence (P61169 whole entry): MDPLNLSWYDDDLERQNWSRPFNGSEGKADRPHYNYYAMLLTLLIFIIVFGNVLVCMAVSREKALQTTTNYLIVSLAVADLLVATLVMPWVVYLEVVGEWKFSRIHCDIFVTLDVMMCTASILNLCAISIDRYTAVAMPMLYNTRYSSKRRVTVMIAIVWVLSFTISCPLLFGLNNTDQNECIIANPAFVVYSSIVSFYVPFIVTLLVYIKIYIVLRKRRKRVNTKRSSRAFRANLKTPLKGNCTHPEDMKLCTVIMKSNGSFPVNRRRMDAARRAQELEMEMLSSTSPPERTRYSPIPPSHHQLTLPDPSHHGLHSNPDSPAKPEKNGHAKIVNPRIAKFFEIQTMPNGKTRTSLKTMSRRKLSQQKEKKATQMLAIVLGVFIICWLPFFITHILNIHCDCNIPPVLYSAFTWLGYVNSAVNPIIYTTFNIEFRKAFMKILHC
Description: as §1, §2, §3

[3] = estimated from single concentration data by Langmuir adsorption isotherm equation, read-out: Ki for D2 binding (marked E)
[4] = pH 7.7, 4° C., 40 minutes, > = from highest concentration which displaced ≤50% of the ligand, read-out: Ki for D2 binding

`C=CCN1CCc2cc(O)c(O)cc2C1C1(c2ccc(Cl)cc2)CCC1` (stereo not shown) [Example 67, 2-allyl-1-[1-(4-chlorophenyl)cyclobutyl]-6,7-dihydroxy-1,2,3,4-tetrahydroisoquinoline] showed a pKi [1] of 7.28 and a pKi [2, 3] of 5.15.
In the case of `COc1cc2c(cc1O)C(C1(c3ccc(Cl)cc3)CCC1)N(C)CC2` (stereo not shown) [Example 49, 1-[1-(4-chlorophenyl)cyclobutyl]-7-hydroxy-6-methoxy-2-methyl-1,2,3,4-tetrahydroisoquinoline], the pKi [1] was 8.08, the pKi [2, 4] was under 6.30 and the “Ki for D2 / Ki for D1” value [2] was over 60.
`COc1cccc(C2(C3c4cc(O)c(OC)cc4CCN3C)CCC2)c1` (stereo not shown) [Example 39, 7-hydroxy-6-methoxy-1-[1-(3-methoxyphenyl)cyclobutyl]-2-methyl-1,2,3,4-tetrahydroisoquinoline] was tested, and the pKi [1] was 7.64, the pKi [2, 4] was 5.72 and the “Ki for D2 / Ki for D1” value [2] was 83.
`CN1CCc2cc(O)c(O)cc2C1C1(c2ccc(Cl)c(Cl)c2)CCC1` (stereo not shown) [Example 18, 1-[1-(3,4-dichlorophenyl)cyclobutyl]-6,7-dihydroxy-2-methyl-1,2,3,4-tetrahydroisoquinoline] was tested, and the pKi [1] was 7.08, the pKi [2, 4] was 5.36 and the “Ki for D2 / Ki for D1” value [2] was 53.
For `CN1CCc2cc(Cl)c(O)cc2C1C1(c2ccccc2Cl)CCC1` (stereo not shown) [Example 22, 6-chloro-1-[1-(2-chlorophenyl)cyclobutyl]-7-hydroxy-2-methyl-1,2,3,4-tetrahydroisoquinoline], the pKi [1] was 8.64, the pKi [2, 4] was 5.74 and the “Ki for D2 / Ki for D1” value [2] was 780.
For `CN1CCc2cc(O)c(O)cc2C1C1(c2ccc(Br)cc2)CCC1` (stereo not shown) [Example 17, 1-[1-(4-bromophenyl)cyclobutyl]-6,7-dihydroxy-2-methyl-1,2,3,4-tetrahydroisoquinoline], the pKi [1] was 8.41, the pKi [2, 4] was 5.05 and the “Ki for D2 / Ki for D1” value [2] was 2300.
For `CN1CCc2cc(O)c(O)cc2C1C1(c2ccc(Cl)cc2)CCC1` (stereo not shown) [Example 50, 1-[1-(4-chlorophenyl)cyclobutyl]-6,7-dihydroxy-2-methyl-1,2,3,4-tetrahydroisoquinoline], the pKi [1] was 7.60, the pKi [2, 4] was 5.82 and the “Ki for D2 / Ki for D1” value [2] was 60.
With `CN1CCc2cc(-c3ccccc3)c(O)cc2C1C1(c2ccccc2Cl)CCC1` (stereo not shown) [Example 11, 1-[1-(2-chlorophenyl)cyclobutyl]-7-hydroxy-2-methyl-6-phenyl-1,2,3,4-tetrahydroisoquinoline] the pKi [1] was 6.82, the pKi [2, 4] was 5.46 and the “Ki for D2 / Ki for D1” value [2] was 23.
For `COc1cc2c(cc1O)C(C1(c3ccccc3Cl)CCCC1)N(C)CC2` (stereo not shown) [Example 84, 1-[1-(2-chlorophenyl)cyclopentyl]-7-hydroxy-6-methoxy-2-methyl-1,2,3,4-tetrahydroisoquinoline], the pKi [1] was 7.92, the pKi [2, 4] was 5.29 and the “Ki for D2 / Ki for D1” value [2] was 430.
In the case of `CSc1ccccc1C1(C2c3cc(O)c(O)cc3CCN2C)CCC1` (stereo not shown) [Example 71, 6,7-dihydroxy-2-methyl-1-[1-(2-methylthiophenyl)cyclobutyl]-1,2,3,4-tetrahydroisoquinoline], the pKi [1] was 8.82, the pKi [2, 4] was 5.74 and the “Ki for D2 / Ki for D1” value [2] was 1200.
In the case of `CN1CCc2c(Cl)ccc(O)c2C1C1(c2ccccc2)CCC1` (stereo not shown) [Example 44, 5-chloro-8-hydroxy-2-methyl-1-(1-phenylcyclobutyl)-1,2,3,4-tetrahydroisoquinoline], the pKi [1] was 6.89, the pKi [2, 4] was 5.32 and the “Ki for D2 / Ki for D1” value [2] was 37.
For `CCN1CCc2cc(O)c(O)cc2C1C1(c2ccc(Cl)cc2)CCC1` (stereo not shown) [Example 66, 1-[1-(4-chlorophenyl)cyclobutyl]-2-ethyl-6,7-dihydroxy-1,2,3,4-tetrahydroisoquinoline], the pKi [1] was 6.92, the pKi [2, 4] was under 6.30 and the “Ki for D2 / Ki for D1” value [2] was over 4.2.
`CN1CCc2ccc(O)cc2C1C1(c2ccc(Cl)cc2)CCC1` (stereo not shown) [Example 51, 1-[1-(4-chlorophenyl)cyclobutyl]-7-hydroxy-2-methyl-1,2,3,4-tetrahydroisoquinoline] was tested, and the pKi [1] was 7.89, the pKi [2, 4] was under 6.30 and the “Ki for D2 / Ki for D1” value [2] was over 38.
With `CN1CCc2cc(O)c(O)cc2C1C1(c2ccc(F)cc2)CCC1` (stereo not shown) [Example 3, 1-[1-(4-fluorophenyl)cyclobutyl]-6,7-dihydroxy-2-methyl-1,2,3,4-tetrahydroisoquinoline] the pKi [1] was 7.66, the pKi [2, 4] was 2.21 and the “Ki for D2 / Ki for D1” value [2] was 280000.
In the case of `CN1CCc2cc([N+](=O)[O-])c(O)cc2C1C1(c2ccccc2)CCC1` (stereo not shown) [Example 57, 7-hydroxy-2-methyl-6-nitro-1-(1-phenylcyclobutyl)-1,2,3,4-tetrahydroisoquinoline], the pKi [1] was 6.11, the pKi [2, 4] was under 5.30 and the “Ki for D2 / Ki for D1” value [2] was over 6.5.
For `CN1CCc2c(cc(O)c(O)c2Cl)C1C1(c2ccccc2)CCC1` (stereo not shown) [Example 32, 5-chloro-6,7-dihydroxy-2-methyl-1-(1-phenylcyclobutyl)-1,2,3,4-tetrahydroisoquinoline], the pKi [1] was 6.85, the pKi [2, 4] was under 5.30 and the “Ki for D2 / Ki for D1” value [2] was over 36.
`CN1CCc2c(O)cccc2C1C1(c2ccc(Cl)cc2)CCC1` (stereo not shown) [Example 26, 1-[1-(4-chlorophenyl)cyclobutyl]-5-hydroxy-2-methyl-1,2,3,4-tetrahydroisoquinoline] was tested, and the pKi [1] was 6.25 and the pKi [2, 3] was 5.15.
In the case of `CN1CCc2cc(O)c(O)cc2C1C1(c2cccc(Cl)c2)CCC1` (stereo not shown) [Example 33, 1-[1-(3-chlorophenyl)cyclobutyl]-6,7-dihydroxy-2-methyl-1,2,3,4-tetrahydroisoquinoline], the pKi [1] was 7.19, the pKi [2, 4] was 4.64 and the “Ki for D2 / Ki for D1” value [2] was 350.
With `COc1cc2c(cc1O)C(C1(c3ccccc3Cl)CCC1)N(C)CC2` (stereo not shown) [Example 35, 1-[1-(2-chlorophenyl)cyclobutyl]-7-hydroxy-6-methoxy-2-methyl-1,2,3,4-tetrahydroisoquinoline] the pKi [1] was 8.89, the pKi [2, 4] was 3.62 and the “Ki for D2 / Ki for D1” value [2] was 180000.
In the case of `CN1CCc2cc(O)c(O)cc2C1C1(c2ccccc2)CC1` (stereo not shown) [Example 27, 6,7-dihydroxy-2-methyl-1-(1-phenylcyclopropyl)-1,2,3,4-tetrahydroisoquinoline], the pKi [1] was 6.72, the pKi [2, 4] was 5.24 and the “Ki for D2 / Ki for D1” value [2] was 30.
`Cc1cc2c(cc1O)C(C1(c3ccccc3Cl)CC1)N(C)CC2` (stereo not shown) [Example 79, 1-[1-(2-chlorophenyl)cyclopropyl]-7-hydroxy-2,6-dimethyl-1,2,3,4-tetrahydroisoquinoline] was tested, and the pKi [1] was 8.92, the pKi [2, 4] was 6.03 and the “Ki for D2 / Ki for D1” value [2] was 780.
For `COc1cc2c(cc1O)C(C1(c3ccc(OC(F)(F)F)cc3)CCC1)N(C)CC2` (stereo not shown) [Example 72, 7-hydroxy-6-methoxy-2-methyl-1-[1-(4-trifluoromethoxyphenyl)cyclobutyl]-1,2,3,4-tetrahydroisoquinoline], the pKi [1] was 7.33, the pKi [2, 4] was 5.02 and the “Ki for D2 / Ki for D1” value [2] was 200.
In the case of `CN1CCc2ccc(O)cc2C1C1(c2ccccc2)CCC1` (stereo not shown) [Example 41, 7-hydroxy-2-methyl-1-(1-phenylcyclobutyl)-1,2,3,4-tetrahydroisoquinoline], the pKi [1] was 7.10, the pKi [2, 4] was 4.89 and the “Ki for D2 / Ki for D1” value [2] was 160.
`COc1cc2c(cc1O)C(C1(c3ccccc3OC)CC1)N(C)CC2` (stereo not shown) [Example 73, 7-hydroxy-6-methoxy-1-[1-(2-methoxyphenyl)cyclopropyl]-2-methyl-1,2,3,4-tetrahydroisoquinoline] was tested, and the pKi [1] was 9.05, the pKi [2, 4] was 5.30 and the “Ki for D2 / Ki for D1” value [2] was 5500.
In the case of `CN1CCc2cc(O)c(O)cc2C1C1(c2ccc(Cl)cc2)CCCCC1` (stereo not shown) [Example 16, 1-[1-(4-chlorophenyl)cyclohexyl]-6,7-dihydroxy-2-methyl-1,2,3,4-tetrahydroisoquinoline], the pKi [1] was 6.74, the pKi [2, 4] was 5.49 and the “Ki for D2 / Ki for D1” value [2] was 18.
With `COc1cc2c(cc1O)C(C1(c3cc(OC)c(OC)cc3Br)CCC1)N(C)CC2` (stereo not shown) [Example 56, 1-[1-(2-bromo-4,5-dimethoxyphenyl)cyclobutyl]-7-hydroxy-6-methoxy-2-methyl-1,2,3,4-tetrahydroisoquinoline] the pKi [1] was 8.64, the pKi [2, 4] was 4.28 and the “Ki for D2 / Ki for D1” value [2] was 23000.
`CN1CCc2cc(F)c(O)cc2C1C1(c2ccccc2Br)CCC1` (stereo not shown) [Example 34, 1-[1-(2-bromophenyl)cyclobutyl]-6-fluoro-7-hydroxy-2-methyl-1,2,3,4-tetrahydroisoquinoline] was tested, and the pKi [1] was 8.74, the pKi [2, 4] was 5.11 and the “Ki for D2 / Ki for D1” value [2] was 4300.
In the case of `CN1CCc2cc(O)c(O)cc2C1C1(c2ccc(Cl)cc2Cl)CCC1` (stereo not shown) [Example 46], the pKi [1] was 8.18, the pKi [2, 4] was 5.92 and the “Ki for D2 / Ki for D1” value [2] was 180.
